Measured values from patent US12622909B2, “Allosteric EGFR inhibitors and methods of use thereof” (Dana-Farber Cancer Institute, Inc., priority 2019, dated 2026).
Structures can show the parent of a compound that is named as a salt. Where two headings read alike, the source gives them in different places.

How the values were obtained:
EGFR L858R = EGFR L858R (Homo sapiens, UniProt P00533, L858R); test: HTRF-based EGFR biochemical assay (L858R); conditions: 100 μM ATP, enzyme 0.1 nM
Outline: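 Reaction started with 100 μM ATP (final) for 20 min, then quenched with EDTA. Phosphorylation detected by HTRF (Eu-cryptate anti-phosphotyrosine/Streptavidin-XL665, 665/620 nm).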

[1] = target: EGFR L858R/T790M mutant Ba/F3 cells (Homo sapiens, UniProt P00533, T790M/L858R, cells depend on it); test: Ba/F3 cell proliferation (Cell Titer Glo); format: cell-based, murine; conditions: 72 hours
Chain of EGFR L858R/T790M mutant Ba/F3 cells (P00533 whole entry T790M/L858R): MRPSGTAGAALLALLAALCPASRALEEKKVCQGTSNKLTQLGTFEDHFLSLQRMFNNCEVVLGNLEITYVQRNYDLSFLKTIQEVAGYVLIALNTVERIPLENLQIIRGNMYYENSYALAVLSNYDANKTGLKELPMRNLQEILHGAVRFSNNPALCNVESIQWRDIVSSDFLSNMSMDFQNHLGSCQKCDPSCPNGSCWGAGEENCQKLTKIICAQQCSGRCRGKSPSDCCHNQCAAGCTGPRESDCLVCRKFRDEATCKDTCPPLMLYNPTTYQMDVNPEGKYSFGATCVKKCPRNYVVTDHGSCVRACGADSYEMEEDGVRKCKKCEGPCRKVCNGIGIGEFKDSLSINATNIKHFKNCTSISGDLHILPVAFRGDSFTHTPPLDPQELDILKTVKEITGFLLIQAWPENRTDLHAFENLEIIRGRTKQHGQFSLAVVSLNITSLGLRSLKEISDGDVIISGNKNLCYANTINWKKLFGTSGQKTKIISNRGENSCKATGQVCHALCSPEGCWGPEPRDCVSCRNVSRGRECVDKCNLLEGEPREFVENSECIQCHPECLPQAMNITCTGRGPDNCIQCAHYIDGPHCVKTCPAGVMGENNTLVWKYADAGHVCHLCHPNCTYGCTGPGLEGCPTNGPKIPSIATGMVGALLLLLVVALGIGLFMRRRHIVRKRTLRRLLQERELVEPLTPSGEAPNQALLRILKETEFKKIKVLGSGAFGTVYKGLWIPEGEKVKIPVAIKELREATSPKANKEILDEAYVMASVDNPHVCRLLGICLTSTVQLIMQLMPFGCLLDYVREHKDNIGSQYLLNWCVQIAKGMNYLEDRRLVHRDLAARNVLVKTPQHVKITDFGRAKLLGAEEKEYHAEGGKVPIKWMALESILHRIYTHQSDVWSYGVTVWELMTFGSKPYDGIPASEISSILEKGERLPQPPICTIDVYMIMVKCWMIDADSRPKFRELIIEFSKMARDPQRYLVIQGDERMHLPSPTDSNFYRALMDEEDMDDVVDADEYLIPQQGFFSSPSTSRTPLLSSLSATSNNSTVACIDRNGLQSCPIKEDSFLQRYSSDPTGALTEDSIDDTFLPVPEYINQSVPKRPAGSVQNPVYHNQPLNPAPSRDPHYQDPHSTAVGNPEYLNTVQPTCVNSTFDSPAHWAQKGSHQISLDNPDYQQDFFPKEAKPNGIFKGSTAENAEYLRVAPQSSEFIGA
Outline: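 Ba/F3 cells retrovirally transduced with the EGFR construct and puromycin-selected (2 μg/ml), grown in RPMI 1640 with 10% FBS. Viability read by Cell Titer Glo luminescence (ATP content), triplicate points, experiments repeated at least three times. Curves fitted by non-linear sigmoidal dose-response regression.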

EGFR L858R/T790M = EGFR L858R/T790M (Homo sapiens, UniProt P00533, L858R/T790M); test: HTRF-based EGFR biochemical assay (L858R/T790M); conditions: 100 μM ATP, enzyme 0.02 nM
Chain of EGFR L858R/T790M (P00533 25-1210 T790M/L858R): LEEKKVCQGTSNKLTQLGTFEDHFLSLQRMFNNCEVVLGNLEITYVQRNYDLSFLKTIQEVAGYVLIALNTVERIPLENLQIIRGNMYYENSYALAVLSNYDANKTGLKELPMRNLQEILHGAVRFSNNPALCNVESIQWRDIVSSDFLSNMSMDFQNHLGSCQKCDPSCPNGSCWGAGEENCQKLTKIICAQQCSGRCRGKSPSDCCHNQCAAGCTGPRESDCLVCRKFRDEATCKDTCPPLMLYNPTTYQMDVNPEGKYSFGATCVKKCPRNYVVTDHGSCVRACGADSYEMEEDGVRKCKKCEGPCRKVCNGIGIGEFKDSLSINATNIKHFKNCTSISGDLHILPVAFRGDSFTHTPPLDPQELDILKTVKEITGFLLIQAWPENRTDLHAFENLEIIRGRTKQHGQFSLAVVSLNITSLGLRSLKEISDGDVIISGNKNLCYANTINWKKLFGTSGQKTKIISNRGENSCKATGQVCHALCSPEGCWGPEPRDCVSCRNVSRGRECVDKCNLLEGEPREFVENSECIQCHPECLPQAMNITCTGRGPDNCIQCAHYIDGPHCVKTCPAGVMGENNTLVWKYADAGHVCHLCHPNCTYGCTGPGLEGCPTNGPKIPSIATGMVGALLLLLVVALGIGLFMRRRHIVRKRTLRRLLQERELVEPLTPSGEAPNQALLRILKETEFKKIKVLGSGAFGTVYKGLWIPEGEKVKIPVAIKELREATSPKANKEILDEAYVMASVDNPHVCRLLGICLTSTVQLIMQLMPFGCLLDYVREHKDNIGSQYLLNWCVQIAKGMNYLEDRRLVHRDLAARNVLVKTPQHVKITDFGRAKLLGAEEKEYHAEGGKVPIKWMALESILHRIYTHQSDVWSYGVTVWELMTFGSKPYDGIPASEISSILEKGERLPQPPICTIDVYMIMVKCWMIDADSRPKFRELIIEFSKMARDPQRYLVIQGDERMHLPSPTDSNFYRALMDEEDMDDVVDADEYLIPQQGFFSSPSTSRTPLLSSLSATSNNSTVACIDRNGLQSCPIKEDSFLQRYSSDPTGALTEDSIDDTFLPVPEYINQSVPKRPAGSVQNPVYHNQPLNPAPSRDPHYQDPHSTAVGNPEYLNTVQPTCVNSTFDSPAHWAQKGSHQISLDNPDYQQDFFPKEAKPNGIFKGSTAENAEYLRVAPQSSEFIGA
Outline: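 Mutant EGFR preincubated 30 min with compound at room temperature, then reacted 20 min with 1 μM biotinylated tyrosine kinase peptide and 100 μM ATP in 50 mM HEPES pH 7.0, 5 mM MgCl2, 1 mM MnCl2, 0.01% BSA, 2 mM TCEP, 0.1 mM NaVO4. Phosphorylation read by HTRF.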

[2] = in combination with 1 μg/ml cetuximab, read-out: Cell IC50 BaF3 L858R/T790M compound + cetuximab
[3] = single agent, read-out: Cell IC50 EGFR BaF3 L858R/T790M

Chain of EGFR L858R (P00533 25-1210 L858R): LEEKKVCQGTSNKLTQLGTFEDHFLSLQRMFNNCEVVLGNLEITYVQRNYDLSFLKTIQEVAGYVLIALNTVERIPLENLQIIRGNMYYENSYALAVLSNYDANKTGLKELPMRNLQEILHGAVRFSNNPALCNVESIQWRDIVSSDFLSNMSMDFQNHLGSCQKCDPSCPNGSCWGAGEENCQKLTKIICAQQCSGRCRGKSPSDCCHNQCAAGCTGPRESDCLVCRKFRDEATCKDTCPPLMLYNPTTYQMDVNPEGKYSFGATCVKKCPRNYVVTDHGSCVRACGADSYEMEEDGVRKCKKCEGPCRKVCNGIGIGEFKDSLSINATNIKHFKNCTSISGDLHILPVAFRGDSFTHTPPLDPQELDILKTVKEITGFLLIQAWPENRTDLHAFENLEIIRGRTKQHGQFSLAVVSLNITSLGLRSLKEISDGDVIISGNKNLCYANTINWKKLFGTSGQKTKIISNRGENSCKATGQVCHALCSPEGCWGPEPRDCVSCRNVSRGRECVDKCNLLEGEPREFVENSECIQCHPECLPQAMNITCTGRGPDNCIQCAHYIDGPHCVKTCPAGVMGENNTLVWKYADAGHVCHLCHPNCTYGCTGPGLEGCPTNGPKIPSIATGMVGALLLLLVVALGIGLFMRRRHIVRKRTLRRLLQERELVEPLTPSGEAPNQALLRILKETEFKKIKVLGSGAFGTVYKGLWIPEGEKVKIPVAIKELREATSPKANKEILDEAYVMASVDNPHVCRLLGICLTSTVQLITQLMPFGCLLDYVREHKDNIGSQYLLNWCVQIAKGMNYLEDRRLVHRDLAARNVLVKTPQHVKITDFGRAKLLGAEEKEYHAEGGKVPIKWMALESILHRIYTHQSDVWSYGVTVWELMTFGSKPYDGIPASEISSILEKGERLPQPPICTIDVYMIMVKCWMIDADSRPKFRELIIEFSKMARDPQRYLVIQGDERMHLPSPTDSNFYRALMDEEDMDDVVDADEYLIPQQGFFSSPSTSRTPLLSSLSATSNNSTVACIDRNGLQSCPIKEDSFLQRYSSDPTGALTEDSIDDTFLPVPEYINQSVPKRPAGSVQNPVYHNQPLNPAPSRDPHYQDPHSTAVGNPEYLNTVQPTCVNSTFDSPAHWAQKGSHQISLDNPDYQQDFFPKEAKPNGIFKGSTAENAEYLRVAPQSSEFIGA

| SMILES | IC50 (EGFR L858R) [nM] | GI50 [1, 2] [nM] | GI50 [1, 3] [nM] | IC50 (EGFR L858R/T790M) [nM] |
| --- | --- | --- | --- | --- |
| CN1CCN(c2ccc(-c3ccc4ncn(C(C(=O)Nc5nccs5)c5ccccc5)c(=O)c4c3F)cc2)CC1 (stereo not shown) [Compound 071, 2-(5-Fluoro-6-(4-(4-methyl-piperazin-1-yl)phenyl)-4-oxo-quinazolin-3(4H)-yl)-2-phenyl-N-(thiazol-2-yl)acetamide] | 5 | 20 | 2370 | 0.7 |
| CN1CCN(c2ccc(-c3ccc4ncn(C(C(=O)Nc5nccs5)c5ccccc5)c(=O)c4n3)cc2)CC1 (stereo not shown) [Compound 072, 2-(6-(4-(4-Methylpiperazin-1-yl)-phenyl)-4-oxopyrido[3,2-d]-pyrimidin-3(4H)-yl)-2-phenyl-N-(thiazol-2-yl)acetamide] | 12 | 55 | 1600 | 1 |
| CN1CCC(c2ccc(-c3ccc4ncn(C(C(=O)Nc5nccs5)c5ccccc5)c(=O)c4n3)cc2)CC1 (stereo not shown) [Compound 073, 2-(6-(4-(1-Methylpiperidin-4-yl)-phenyl)-4-oxopyrido[3,2-d]-pyrimidin-3(4H)-yl)-2-phenyl-N-(thiazol-2-yl)acetamide] | 7 | 15 | 1940 | 0.6 |
| COc1cccc(F)c1C(C(=O)Nc1nccs1)n1cnc2ccc(-c3ccc(N4CCN(C)CC4)cc3)cc2c1=O (stereo not shown) [Compound 077, 2-(2-Fluoro-6-methoxyphenyl)-2-(6-(4-(4-methylpiperazin-1-yl)phenyl)-4-exoquinazolin-3(4H)-yl)-N-(thiazol-2-yl)acetamide] | 35 | 2100 | 6460 | 17 |
| COc1cccc(F)c1C(C(=O)Nc1nccs1)n1cnc2ccc(-c3ccc(C4CCN(C)CC4)cc3)cc2c1=O (stereo not shown) [Compound 078] | 8 | 620 | 4200 | 1 |
| CN1CCC(c2ccc(-c3ccc4ncn(C(C(=O)Nc5nccs5)c5cc(F)ccc5O)c(=O)c4c3F)cc2)CC1 (stereo not shown) [Compound 083, 2-(5-Fluoro-2-hydroxyphenyl)-2-(5-fluoro-6-(4-(1-methylpiperidin-4-yl)phenyl)-4-oxoquinazolin-3(4H)-yl)-N-(thiazol-2-yl)acetamide] | 0.2 | 9 | 40 | 0.1 |
| CN1CCN(c2ccc(-c3ccc4ncn(C(C(=O)Nc5nccs5)c5c(O)cccc5F)c(=O)c4c3)cc2)CC1 (stereo not shown) [Compound 085, 2-(2-Fluoro-6-hydroxyphenyl)-2-(6-(4-(4-methylpiperazin-1-yl)phenyl)-4-oxoquinazolin-3(4H)-yl)-N-(thiazol-2-yl)acetamide] | 6 | 66 | 5770 | 3 |

Now from value to molecule:

| IC50 (EGFR L858R) [nM] | GI50 [1, 2] [nM] | GI50 [1, 3] [nM] | IC50 (EGFR L858R/T790M) [nM] | SMILES |
| --- | --- | --- | --- | --- |
| 6 | 22 | 2350 | 0.6 | CN1CCC(c2ccc(-c3ccc4ncn(C(C(=O)Nc5ccccn5)c5cccc(F)c5)c(=O)c4c3F)cc2)CC1 (stereo not shown) [Compound 074, 2-(5-Fluoro-6-(4-(1-methylpiperidin-4-yl)phenyl)-4-oxoquinazolin-3-(4H)-yl)-2-(3-fluorophenyl)-N-(pyridin-2-yl)acetamide] |
| 1 | 7 | 1030 | 0.1 | CN1CCC(c2ccc(-c3ccc4ncn(C(C(=O)Nc5nccs5)c5ccccc5F)c(=O)c4c3F)cc2)CC1 (stereo not shown) [Compound 075, 2-(5-Fluoro-6-(4-(1-methylpiperidin-4-yl)phenyl)-4-oxoquinazolin-3-(4H)-yl)-2-(2-fluorophenyl)-N-(thiazol-2-yl)acetamide] |
| 8 | 44 | 3360 | 0.7 | CN1CCN(c2ccc(-c3ccc4ncn(C(C(=O)Nc5nccs5)c5ccccc5F)c(=O)c4c3F)cc2)CC1 (stereo not shown) [Compound 076, 2-(5-Fluoro-6-(4-(4-methyl-piperazin-1-yl)phenyl)-4-oxo-quinazolin-3(4H)-yl)-2-(2-fluoro-phenyl)-N-(thiazol-2-yl)acetamide] |
| 1 | 2 | 230 | 0.2 | CN1CCC(c2ccc(-c3ccc4ncn(C(C(=O)Nc5ccccn5)c5cc(F)ccc5O)c(=O)c4c3)cc2)CC1 (stereo not shown) [Compound 082, 2-(5-Fluoro-2-hydroxyphenyl)-2-(6-(4-(1-methylpiperidin-4-yl)phenyl)-4-oxoquinazolin-3(4H)-yl)-N-(pyridin-2-yl)acetamide; hydrochloride] |
| 0.4 | 48 | 860 | 0.1 | CN1CCC(c2ccc(-c3ccc4ncn(C(C(=O)Nc5nccs5)c5cc(F)ccc5O)c(=O)c4n3)cc2)CC1 (stereo not shown) [Compound 084, 2-(5-Fluoro-2-hydroxyphenyl)-2-(6-(4-(1-methylpiperidin-4-yl)phenyl)-4-oxopyrido[3,2-d]pyrimidin-3(4H)-yl)-N-(thiazol-2-yl)acetamide] |
| 2 | 33 | 3160 | 0.4 | CN1CCC(c2ccc(-c3ccc4ncn(C(C(=O)Nc5nccs5)c5c(O)cccc5F)c(=O)c4c3)cc2)CC1 (stereo not shown) [Compound 086, 2-(2-Fluoro-6-hydroxyphenyl)-2-(6-(4-(1-methylpiperidin-4-yl)phenyl)-4-oxoquinazolin-3(4H)-yl)-N-(thiazol-2-yl)acetamide] |
